# Experimental data as given in patent US9833497B2, “Human originated EGF domain proteins and use of the same” (CHENGDU SOURCEBIO LIMITED-LIABILITY COMPANY, priority 2013, dated 2017).
# How the values were obtained:
# Format in all cases: cell-based
# E. coli DH5α = assay: Antibacterial activity: MIC and growth curve against E. coli DH5α in 96-well plate; conditions: minimal inhibitory concentration against E. coli DH5α; 96-well plate, 5×10^5 CFU/mL, 37° C., judged after 8 h
# How it was run: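 Log-phase bacteria (OD600 ~0.5) resuspended in LB at 5×10^5 CFU/mL, exposed to recombinant protein at 50, 25, 12.5 μg/mL final in triplicate, 37 °C shaking at 175 rpm. OD600 read every 30 min; MIC is lowest concentration showing no growth.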
# E. coli BL21 = assay: MIC against Gram-negative bacteria: E. coli BL21; conditions: 10 h cultivation at 37° C.
# How it was run: (§1)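 LB broth cultures at McFarland 0.5, spun down, resuspended, diluted to 5×10^5 CFU/mL final. Two-fold serial dilutions of purified human EGF domain proteins, triplicate. 37° C, 175 rpm shaking. Endpoint: no visible growth.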
# Moraxella catarrhalis = assay: MIC against Gram-negative bacteria: Moraxella catarrhalis; conditions: 10 h cultivation at 37° C.
# How it was run: as §1
# Enterobacter cloacae = assay: MIC against Gram-negative bacteria: Enterobacter cloacae; conditions: 10 h cultivation at 37° C.
# How it was run: as §1
# Serratia marcescens = assay: MIC against Gram-negative bacteria: Serratia marcescens; conditions: 10 h cultivation at 37° C.
# How it was run: as §1
# Aeromonas hydrophila = assay: MIC against Gram-negative bacteria: Aeromonas hydrophila; conditions: 10 h cultivation at 37° C.
# How it was run: as §1
# Proteus vulgaris = assay: MIC against Gram-negative bacteria: Proteus vulgaris; conditions: 10 h cultivation at 37° C.
# How it was run: as §1
# Klebsiella pneumonia = assay: MIC against Gram-negative bacteria: Klebsiella pneumonia; conditions: 10 h cultivation at 37° C.
# How it was run: as §1
# Pseudomonas aeruginosa = assay: MIC against Gram-negative bacteria: Pseudomonas aeruginosa; conditions: 10 h cultivation at 37° C.
# How it was run: as §1
# Proteus mirabilis = assay: MIC against Gram-negative bacteria: Proteus mirabilis; conditions: 10 h cultivation at 37° C.
# How it was run: as §1
# Citrobacter diversus = assay: MIC against Gram-negative bacteria: Citrobacter diversus; conditions: 10 h cultivation at 37° C.
# How it was run: as §1
# [1] = 5×10^5 CFU/mL, two-fold serial dilution
substance,measurement,setting,value
PRT1021 (LQNPCYIGTHGCDTNAACRPGPRTQFTCECSIGFRGDGRTCY; listed as Homo sapiens),MIC,E. coli DH5α,25 µg/mL
same,MIC,E. coli BL21; E. coli BL21,12.5 µg/mL
same,MIC,Moraxella catarrhalis; M. catarrhalis,12.5 µg/mL
same,MIC,Enterobacter cloacae; E. cloacae,25 µg/mL
same,MIC,Serratia marcescens; S. marcescens,50 µg/mL
same,MIC,Aeromonas hydrophila; A. hydrophila,12.5 µg/mL
same,MIC,Proteus vulgaris; P. vulgaris,12.5 µg/mL
same,MIC,Klebsiella pneumonia; K. pneumonia,50 µg/mL
same,MIC,Pseudomonas aeruginosa; P. aeruginosa,25 µg/mL
same,MIC,Proteus mirabilis; P. mirabilis,50 µg/mL
same,MIC,Citrobacter diversus; C. diversus,50 µg/mL
PRT171 (CDPSPCKNGGSCTDLENSYSCTCPPGFYGKIC; listed as Homo sapiens),MIC,E. coli DH5α,25 µg/mL
same,MIC (μg/mL) E. coli BL21,"E. coli BL21; E. coli BL21, 5×10^5 CFU/mL",50 µg/mL
same,MIC (μg/mL) M. catarrhalis,"Moraxella catarrhalis; M. catarrhalis, 5×10^5 CFU/mL",12.5 µg/mL
same,MIC (μg/mL) E. cloacae,"Enterobacter cloacae; E. cloacae, 5×10^5 CFU/mL",25 µg/mL
same,MIC (μg/mL) S. marcescens,"Serratia marcescens; S. marcescens, 5×10^5 CFU/mL",25 µg/mL
same,MIC (μg/mL) A. hydrophila,"Aeromonas hydrophila; A. hydrophila, 5×10^5 CFU/mL",50 µg/mL
same,MIC (μg/mL) P. vulgaris,"Proteus vulgaris; P. vulgaris, 5×10^5 CFU/mL",50 µg/mL
same,MIC (μg/mL) K. pneumonia,"Klebsiella pneumonia; K. pneumonia, 5×10^5 CFU/mL",12.5 µg/mL
same,MIC (μg/mL) P. aeruginosa,"Pseudomonas aeruginosa; P. aeruginosa, 5×10^5 CFU/mL",25 µg/mL
same,MIC (μg/mL) P. mirabilis,"Proteus mirabilis; P. mirabilis, 5×10^5 CFU/mL",25 µg/mL
same,MIC (μg/mL) C. diversus,"Citrobacter diversus; C. diversus, 5×10^5 CFU/mL",25 µg/mL
PRT1055 (GADPCLYQNGGCEHICKKRLGTAWCSCREGFMKASDGKTCL; listed as Homo sapiens),MIC,E. coli DH5α,12.5 µg/mL
same,MIC E. coli BL21,E. coli BL21; [1],50 µg/mL
same,MIC M. catarrhalis,Moraxella catarrhalis; [1],12.5 µg/mL
same,MIC E. cloacae,Enterobacter cloacae; [1],12.5 µg/mL
same,MIC S. marcescens,Serratia marcescens; [1],12.5 µg/mL
same,MIC A. hydrophila,Aeromonas hydrophila; [1],50 µg/mL
same,MIC P. vulgaris,Proteus vulgaris; [1],50 µg/mL
same,MIC K. pneumonia,Klebsiella pneumonia; [1],50 µg/mL
same,MIC P. aeruginosa,Pseudomonas aeruginosa; [1],12.5 µg/mL
same,MIC P. mirabilis,Proteus mirabilis; [1],25 µg/mL
same,MIC C. diversus,Citrobacter diversus; [1],25 µg/mL
PRT989 (NIDDCATAVCFHGATCHDRVASFYCACPMGKTGLLCH; listed as Homo sapiens),MIC,E. coli DH5α,50 µg/mL
same,MIC,E. coli BL21; E. coli BL21,12.5 µg/mL
same,MIC,Moraxella catarrhalis; M. catarrhalis,100 µg/mL
same,MIC,Enterobacter cloacae; E. cloacae,12.5 µg/mL
same,MIC,Serratia marcescens; S. marcescens,25 µg/mL
same,MIC,Aeromonas hydrophila; A. hydrophila,12.5 µg/mL
same,MIC,Proteus vulgaris; P. vulgaris,12.5 µg/mL
same,MIC,Klebsiella pneumonia; K. pneumonia,12.5 µg/mL
same,MIC,Pseudomonas aeruginosa; P. aeruginosa,50 µg/mL
same,MIC,Proteus mirabilis; P. mirabilis,12.5 µg/mL
same,MIC,Citrobacter diversus; C. diversus,100 µg/mL
PRT1486 (TVKSCDCLNGGSCVSDRNFSPGSGVYLCVCLPGFHGSLCE; listed as Homo sapiens),MIC,E. coli DH5α,12.5 µg/mL
same,MIC against E. coli BL21,"E. coli BL21; E. coli BL21, 5×10^5 CFU/mL",12.5 µg/mL
same,MIC against M. catarrhalis,"Moraxella catarrhalis; Moraxella catarrhalis, 5×10^5 CFU/mL",25 µg/mL
same,MIC against E. cloacae,"Enterobacter cloacae; Enterobacter cloacae, 5×10^5 CFU/mL",12.5 µg/mL
same,MIC against S. marcescens,"Serratia marcescens; Serratia marcescens, 5×10^5 CFU/mL",12.5 µg/mL
same,MIC against A. hydrophila,"Aeromonas hydrophila; Aeromonas hydrophila, 5×10^5 CFU/mL",25 µg/mL
same,MIC against P. vulgaris,"Proteus vulgaris; Proteus vulgaris, 5×10^5 CFU/mL",12.5 µg/mL
same,MIC against K. pneumonia,"Klebsiella pneumonia; Klebsiella pneumonia, 5×10^5 CFU/mL",25 µg/mL
same,MIC against P. aeruginosa,"Pseudomonas aeruginosa; Pseudomonas aeruginosa, 5×10^5 CFU/mL",25 µg/mL
same,MIC against P. mirabilis,"Proteus mirabilis; Proteus mirabilis, 5×10^5 CFU/mL",12.5 µg/mL
same,MIC against C. diversus,"Citrobacter diversus; Citrobacter diversus, 5×10^5 CFU/mL",12.5 µg/mL
